Test results from publication PMC8405091, “Microwave-assisted Phospha-Michael addition reactions in the 13α-oestrone series and in vitro antiproliferative properties” (Journal of Enzyme Inhibition and Medicinal Chemistry, 2021).
Like-named read-outs stand apart in the source and are kept apart here.

Assays:
A2780 cells = experiment: MTT antiproliferative assay, A2780; assay type: cell-based, human; settings: for IC50: A2780, 72 h, read-out: calculated IC50 value
Experimental: (§1) The antiproliferative properties of the newly synthesized compounds (9–20) and their starting materials (4 and 5) were determined on a panel of human adherent cancer cell lines. MCF-7, MDA-MB-231 and T47D were isolated from breast cancers differing in biochemical background, while A2780 cells were isolated from ovarian cancer. HeLa and SiHa are cervical cancer cell lines positive for HPV-18 and HPV-16, respectively, while C33-A cervical cancer cells are negative for HPV. Moreover, two oropharyngeal cancer cell lines were also utilized: the HPV-negative UPCI-SCC-131 and HPV-16 positive UPCI-SCC-154. The cancer selectivity of compounds was tested on the non-cancerous mouse embryo fibroblast cell line NIH/3T3. All cell lines were purchased from European Collection of Cell Cultures (ECCAC, Salisbury, UK) exception for SiHa and C33-A (American Tissue Culture Collection, Manassas, VA, USA) and HN-SCC-131 and UPCI-SCC-154 (German Collection of Microorganisms and Cell Cultures GmbH, Braunschweig, Germany). Cells were cultivated in minimal essential medium supplemented with 10% fetal bovine serum, 1% non-essential amino acids and an antibiotic–antimycotic mixture. The medium of oropharyngeal cancer cells additionally contained 2.0 mM L-glutamine. All media and supplements were obtained from Lonza Group Ltd., Basel, Switzerland. Near-confluent cancer cells were seeded onto a 96-well microplate at a density of 5,000 cells/well, except for C33-A which were seeded at 10,000/well. After overnight standing, new medium containing the tested compounds at 10 and 30 µM final concentration was added. After incubation for 72 h at 37 °C in humidified air containing 5% CO2, the living cells were assayed by the addition of 20 μL of 5 mg/ml 3-(4,5-dimethylthiazol-2-yl)-2,5-diphenyltetrazolium bromide (MTT) solution. MTT was converted by intact mitochondrial reductase and precipitated as purple crystals during a 4-h contact period. The medium was next removed and the precipitated formazan crystals were dissolved in 100 μL of DMSO during a 60-min period of shaking at 37 ^оC.
(§2) All in vitro experiments were carried out twice with five parallels. Stock solutions of the tested substances (10 mM) were prepared in DMSO. […] Cisplatin (Ebewe Pharma GmbH, Unterach, Austria) was used as positive control.

UPCI-SCC-154 cells = experiment: MTT antiproliferative assay, UPCI-SCC-154; assay type: cell-based, human; settings: for IC50: UPCI-SCC-154, 72 h, read-out: calculated IC50 value
Experimental: as §1, §2

HeLa cells = experiment: MTT antiproliferative assay, HeLa; assay type: cell-based, human; settings: 72 h; for IC50: read-out: calculated IC50 value
Experimental: as §1, §2

SiHa cells = experiment: MTT antiproliferative assay, SiHa; assay type: cell-based, human; settings: 72 h; for IC50: read-out: calculated IC50 value
Experimental: as §1, §2

MDA-MB-231 cells = experiment: MTT antiproliferative assay, MDA-MB-231; assay type: cell-based, human; settings: for IC50: MDA-MB-231, 72 h, read-out: calculated IC50 value
Experimental: as §1, §2

[1] = test system: non-cancerous mouse embryo fibroblast (NIH/3T3) cells; experiment: MTT assay on non-cancerous fibroblasts (tumour selectivity); assay type: cell-based; settings: for IC50: NIH/3T3, 72 h, read-out: calculated IC50 value
Experimental: as §1, §2

UPCI-SCC-131 cells = experiment: MTT antiproliferative assay, UPCI-SCC-131; assay type: cell-based, human; settings: for IC50: UPCI-SCC-131, 72 h, read-out: calculated IC50 value
Experimental: as §1, §2

C33-A cells = experiment: MTT antiproliferative assay, C33-A; assay type: cell-based, human; settings: C33-A, 72 h; for IC50: read-out: calculated IC50 value
Experimental: as §1, §2

T47D cells = experiment: MTT antiproliferative assay, T47D; assay type: cell-based, human; settings: 72 h; for IC50: read-out: calculated IC50 value
Experimental: as §1, §2

MCF-7 cells = experiment: MTT antiproliferative assay, MCF-7; assay type: cell-based, human; settings: for IC50: MCF-7, 72 h, read-out: calculated IC50 value
Experimental: as §1, §2

[2] = Homo sapiens, 10 μM, read-out: Growth inhibition, % ± SEM
[3] = Homo sapiens, 30 μM, read-out: Growth inhibition, % ± SEM

N.N.[Cl][Pt][Cl] [CIS, Cisplatin, reference compound]
Growth inhibition; % ± SEM (A2780 cells; A2780, 10 μM, 72 h): 83.6 ± 1.2%
Growth inhibition; % ± SEM (A2780 cells; A2780, 30 μM, 72 h): 95.0 ± 0.3%
IC50 (A2780 cells): 1.3 µM
Growth inhibition; % ± SEM (UPCI-SCC-154 cells; UPCI-SCC-154, 10 μM, 72 h): 87.40 ± 1.72%
Growth inhibition; % ± SEM (UPCI-SCC-154 cells; UPCI-SCC-154, 30 μM, 72 h): 92.72 ± 1.67%
IC50 (UPCI-SCC-154 cells): 1.29 µM
Growth inhibition; % ± SEM (HeLa cells; 10 μM): 42.61 ± 2.33%
Growth inhibition; % ± SEM (HeLa cells; 30 μM): 99.93 ± 0.26%
IC50 (HeLa cells): 12.4 µM
Growth inhibition; % ± SEM (SiHa cells; 10 μM): 88.64 ± 0.50%
Growth inhibition; % ± SEM (SiHa cells; 30 μM): 90.18 ± 1.78%
IC50 (SiHa cells): 7.84 µM
Growth inhibition; % ± SEM (MDA-MB-231 cells; MDA-MB-231, 10 μM, 72 h): – (Inhibition values <20% are not presented.)
Growth inhibition; % ± SEM (MDA-MB-231 cells; MDA-MB-231, 30 μM, 72 h): 71.47 ± 1.20%
IC50 (MDA-MB-231 cells): 19.1 µM
Growth inhibition; % ± SEM ([1]; NIH/3T3, 10 μM, 72 h): 76.74 ± 1.26%
Growth inhibition; % ± SEM ([1]; NIH/3T3, 30 μM, 72 h): 96.90 ± 0.25%
IC50 [1]: 4.73 µM
Growth inhibition; % ± SEM (UPCI-SCC-131 cells; UPCI-SCC-131, 10 μM, 72 h): 95.63 ± 1.49%
Growth inhibition; % ± SEM (UPCI-SCC-131 cells; UPCI-SCC-131, 30 μM, 72 h): 95.09 ± 1.57%
IC50 (UPCI-SCC-131 cells): 1.22 µM
Growth inhibition; % ± SEM (C33-A cells; 10 μM): 85.98 ± 1.05%
Growth inhibition; % ± SEM (C33-A cells; 30 μM): 98.66 ± 0.21%
IC50 (C33-A cells): 4.13 µM
Growth inhibition; % ± SEM (T47D cells; 10 μM): 40.41 ± 1.25%
Growth inhibition; % ± SEM (T47D cells; 30 μM): 56.84 ± 1.16%
IC50 (T47D cells): 19.2 µM
Growth inhibition; % ± SEM (MCF-7 cells; MCF-7, 10 μM, 72 h): 66.91 ± 1.81%
Growth inhibition; % ± SEM (MCF-7 cells; MCF-7, 30 μM, 72 h): 96.80 ± 0.35%
IC50 (MCF-7 cells): 5.78 µM

C=C1C[C@H]2[C@@H]3CCc4cc(OC)ccc4[C@H]3CC[C@@]2(C)C1=O [Compound 4, 3-methoxy-16-methylene derivative]
IC50 (A2780 cells; Homo sapiens): 6.24 µM
inhibition at 10 µM (A2780 cells; Homo sapiens, A2780, 10 μM, 72 h, read-out: Growth inhibition, % ± SEM): 96.9 ± 1.52%
inhibition at 30 µM (A2780 cells; Homo sapiens, A2780, 30 μM, 72 h, read-out: Growth inhibition, % ± SEM): 100.5 ± 0.22%
inhibition at 10 µM (UPCI-SCC-154 cells; Homo sapiens, UPCI-SCC-154, 10 μM, 72 h, read-out: Growth inhibition, % ± SEM): 97.3 ± 1.1%
inhibition at 30 µM (UPCI-SCC-154 cells; Homo sapiens, UPCI-SCC-154, 30 μM, 72 h, read-out: Growth inhibition, % ± SEM): 97.81 ± 0.65%
IC50 (UPCI-SCC-154 cells; Homo sapiens): 5.15 µM
inhibition at 10 µM (HeLa cells; [2]): 85.1 ± 2.44%
inhibition at 30 µM (HeLa cells; [3]): 99.43 ± 0.28%
IC50 (HeLa cells; Homo sapiens): 4.45 µM
inhibition at 10 µM (SiHa cells; [2]): 97.44 ± 0.54%
inhibition at 30 µM (SiHa cells; [3]): 99.28 ± 0.42%
IC50 (SiHa cells; Homo sapiens): 3.31 µM
IC50 (MDA-MB-231 cells; Homo sapiens): 3.97 µM
inhibition at 10 µM (MDA-MB-231 cells; Homo sapiens, MDA-MB-231, 10 μM, 72 h, read-out: Growth inhibition, % ± SEM): 99.97 ± 0.71%
inhibition at 30 µM (MDA-MB-231 cells; Homo sapiens, MDA-MB-231, 30 μM, 72 h, read-out: Growth inhibition, % ± SEM): 94.6 ± 2.26%
inhibition at 10 µM ([1]; Mus musculus, NIH3T3, NIH/3T3, 10 μM, 72 h, read-out: Growth inhibition, % ± SEM): 101.1 ± 0.67%
inhibition at 30 µM ([1]; Mus musculus, NIH3T3, NIH/3T3, 30 μM, 72 h, read-out: Growth inhibition, % ± SEM): 100.9 ± 0.71%
IC50 ([1]; Mus musculus, NIH3T3): 2.79 µM
inhibition at 10 µM (UPCI-SCC-131 cells; Homo sapiens, UPCI-SCC-131, 10 μM, 72 h, read-out: Growth inhibition, % ± SEM): 99.8 ± 0.36%
inhibition at 30 µM (UPCI-SCC-131 cells; Homo sapiens, UPCI-SCC-131, 30 μM, 72 h, read-out: Growth inhibition, % ± SEM): 99.88 ± 0.39%
IC50 (UPCI-SCC-131 cells; Homo sapiens): 3.17 µM
inhibition at 10 µM (C33-A cells; Homo sapiens, C-33-A, 10 μM, read-out: Growth inhibition, % ± SEM): 99.57 ± 0.61%
inhibition at 30 µM (C33-A cells; Homo sapiens, C-33-A, 30 μM, read-out: Growth inhibition, % ± SEM): 99.55 ± 0.39%
IC50 (C33-A cells; Homo sapiens, C-33-A): 3.6 µM
inhibition at 10 µM (T47D cells; [2]): 99.68 ± 0.74%
inhibition at 30 µM (T47D cells; [3]): 99.92 ± 0.71%
IC50 (T47D cells; Homo sapiens): 3.46 µM
inhibition at 10 µM (MCF-7 cells; Homo sapiens, MCF7, MCF-7, 10 μM, 72 h, read-out: Growth inhibition, % ± SEM): 99.52 ± 0.51%
inhibition at 30 µM (MCF-7 cells; Homo sapiens, MCF7, MCF-7, 30 μM, 72 h, read-out: Growth inhibition, % ± SEM): 99.83 ± 0.44%
IC50 (MCF-7 cells; Homo sapiens, MCF7): 3.7 µM
